# According to PubChem BioAssay AID256 (DTP/NCI, 2004):
# Values joined by “and” are separate entries in the source; they are usually repeats but may differ in a detail not shown here. Identical values can stand only once. Inconclusive results and toxic doses are left out.
# Tested on: CD2F1 mice, L1210 leukemia ip, survival T/C
# Assay: NCI In Vivo Anticancer Drug Screen. Data for tumor model L1210 Leukemia (intraperitoneal) in CD2F1 (CDF1) mice
# Conditions: higher = longer survival
# Procedure, shortened: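 Transplantable tumor in mice; compound-treated vs vehicle-treated groups. Read-out = treated/control ratio of the measured endpoint.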
# [1] = endpoint: mean survival time, dose: 100.0 mg/kg/injection, schedule: Q01DX001 (ip), vehicle: saline with Tween-80
# [2] = endpoint: mean survival time, dose: 200.0 mg/kg/injection, schedule: Q01DX001 (ip), vehicle: saline with Tween-80
# [3] = endpoint: mean survival time, dose: 400.0 mg/kg/injection, schedule: Q01DX001 (ip), vehicle: saline with Tween-80
# [4] = endpoint: mean survival time, dose: 200.0 mg/kg/injection, schedule: Q04DX003 (ip), vehicle: saline with Tween-80
# [5] = endpoint: mean survival time, dose: 12.5 mg/kg/injection, schedule: Q01DX009 (ip), vehicle: water
# [6] = endpoint: mean survival time, dose: 25.0 mg/kg/injection, schedule: Q01DX009 (ip), vehicle: water
# [7] = endpoint: mean survival time, dose: 50.0 mg/kg/injection, schedule: Q01DX009 (ip), vehicle: water
# [8] = endpoint: mean survival time, dose: 100.0 mg/kg/injection, schedule: Q01DX009 (ip), vehicle: water
# [9] = endpoint: mean survival time, dose: 200.0 mg/kg/injection, schedule: Q01DX009 (ip), vehicle: water
# [10] = endpoint: mean survival time, dose: 100.0 mg/kg/injection, schedule: Q01DX009 (ip), vehicle: saline with Tween-80
# [11] = endpoint: mean survival time, dose: 200.0 mg/kg/injection, schedule: Q01DX009 (ip), vehicle: saline with Tween-80
# [12] = endpoint: mean survival time, dose: 400.0 mg/kg/injection, schedule: Q01DX009 (ip), vehicle: saline with Tween-80
# [13] = endpoint: mean survival time, dose: 100.0 mg/kg/injection, schedule: Q04DX003 (ip), vehicle: saline with Tween-80
# [14] = endpoint: mean survival time, dose: 400.0 mg/kg/injection, schedule: Q04DX003 (ip), vehicle: saline with Tween-80
# [15] = endpoint: mean survival time, dose: 100.0 mg/kg/injection, schedule: Q04DX002 (ip), vehicle: saline with Tween-80
# [16] = endpoint: mean survival time, dose: 200.0 mg/kg/injection, schedule: Q04DX002 (ip), vehicle: saline with Tween-80
compound,measurement,setting,value
CCCCN(N=O)C(=O)Nc1ccc(C2CC(=O)N(C)C2=O)cc1 (stereo not given),T/C,"endpoint: mean survival time, dose: 12.5 mg/kg/injection, schedule: Q01DX001 (ip), vehicle: distilled water + Tween-80",103 % of control
same,T/C,"endpoint: mean survival time, dose: 25.0 mg/kg/injection, schedule: Q01DX001 (ip), vehicle: distilled water + Tween-80",99 % of control
same,T/C,"endpoint: mean survival time, dose: 50.0 mg/kg/injection, schedule: Q01DX001 (ip), vehicle: distilled water + Tween-80",112 % of control
same,T/C,"endpoint: mean survival time, dose: 100.0 mg/kg/injection, schedule: Q01DX001 (ip), vehicle: distilled water + Tween-80",112 % of control
same,T/C,"endpoint: mean survival time, dose: 200.0 mg/kg/injection, schedule: Q01DX001 (ip), vehicle: distilled water + Tween-80",120 % of control
CSc1cc(=O)n2c3ccccc3c3ccnc1c32,T/C,"endpoint: mean survival time, dose: 1.25 mg/kg/injection, schedule: Q01DX009 (ip), vehicle: saline with Tween-80",103 % of control
same,T/C,"endpoint: mean survival time, dose: 2.5 mg/kg/injection, schedule: Q01DX009 (ip), vehicle: saline with Tween-80",95 % of control
same,T/C,"endpoint: mean survival time, dose: 5.0 mg/kg/injection, schedule: Q01DX009 (ip), vehicle: saline with Tween-80",97 % of control
same,T/C,"endpoint: mean survival time, dose: 10.0 mg/kg/injection, schedule: Q01DX009 (ip), vehicle: saline with Tween-80",110 % of control
O=c1[nH]c2ccccc2o1,T/C,"endpoint: mean survival time, dose: 12.5 mg/kg/injection, schedule: Q01DX009 (iv), vehicle: methylcellulose (MC)",95 % of control
same,T/C,"endpoint: mean survival time, dose: 25.0 mg/kg/injection, schedule: Q01DX009 (iv), vehicle: methylcellulose (MC)",90 % of control
same,T/C,"endpoint: mean survival time, dose: 50.0 mg/kg/injection, schedule: Q01DX009 (iv), vehicle: methylcellulose (MC)",94 % of control
CCC1(OC(=O)CN2CCN(CCO)CC2)C(=O)OCc2c1cc1n(c2=O)Cc2cc3ccccc3nc2-1 (stereo not given),T/C,"endpoint: median survival time, dose: 6.25 mg/kg/injection, schedule: Q04DX002 (ip), vehicle: water",105 % of control and 108 % of control
same,T/C,"endpoint: median survival time, dose: 12.5 mg/kg/injection, schedule: Q04DX002 (ip), vehicle: water",108 % of control and 112 % of control
same,T/C,"endpoint: median survival time, dose: 25.0 mg/kg/injection, schedule: Q04DX002 (ip), vehicle: water",122 % of control and 110 % of control
same,T/C,"endpoint: median survival time, dose: 100.0 mg/kg/injection, schedule: Q04DX002 (ip), vehicle: water",177 % of control
BrCCC1(CCBr)CCCCC1,T/C,"endpoint: median survival time, dose: 50.0 mg/kg/injection, schedule: Q01DX009 (ip), vehicle: other",104 % of control
same,T/C,"endpoint: median survival time, dose: 200.0 mg/kg/injection, schedule: Q01DX009 (ip), vehicle: other",101 % of control
same,T/C,"endpoint: median survival time, dose: 400.0 mg/kg/injection, schedule: Q01DX009 (ip), vehicle: other",101 % of control
same,T/C,"endpoint: median survival time, dose: 800.0 mg/kg/injection, schedule: Q01DX009 (ip), vehicle: other",101 % of control
CC1CCCC(C)N1c1ccc(NC(=O)c2ccc(C(=O)Nc3ccc(N4C(C)CCCC4C)cc3)cc2)cc1 (stereo not given),T/C,"endpoint: mean survival time, dose: 100.0 mg/kg/injection, schedule: Q01DX001 (ip), vehicle: saline",86 % of control
Cc1ncc(C=C(C(=O)O)C(=O)O)n1Cc1ccccc1,T/C,[1],98 % of control
same,T/C,[2],104 % of control
same,T/C,[3],104 % of control
CCCCOCN(COCCCC)c1ccccc1,T/C,[1],109 % of control
same,T/C,[2],103 % of control
same,T/C,[3],97 % of control
CC(CC(=O)O)[Se][Se]C(C)CC(=O)O (stereo not given),T/C,[1],95 % of control
same,T/C,[2],103 % of control
CC(C)(C)SC1C(O)C(CO)OC1n1ccc(N)nc1=O (stereo not given),T/C,"endpoint: median survival time, dose: 12.5 mg/kg/injection, schedule: Q01DX005 (ip), vehicle: saline",103 % of control
same,T/C,"endpoint: median survival time, dose: 25.0 mg/kg/injection, schedule: Q01DX005 (ip), vehicle: saline",96 % of control
same,T/C,"endpoint: median survival time, dose: 50.0 mg/kg/injection, schedule: Q01DX005 (ip), vehicle: saline",103 % of control
same,T/C,"endpoint: median survival time, dose: 100.0 mg/kg/injection, schedule: Q01DX005 (ip), vehicle: saline",108 % of control
same,T/C,"endpoint: median survival time, dose: 200.0 mg/kg/injection, schedule: Q01DX005 (ip), vehicle: saline",103 % of control
CCN1CCS/C1=C\C=C\C1=[N+](CC)CCS1,T/C,"endpoint: mean survival time, dose: 1.25 mg/kg/injection, schedule: Q01DX001 (ip), vehicle: other",98 % of control
same,T/C,"endpoint: mean survival time, dose: 2.5 mg/kg/injection, schedule: Q01DX001 (ip), vehicle: other",101 % of control
CC(=O)Nc1ccc(S(N)(=O)=O)cc1,T/C,"endpoint: mean survival time, dose: 25.0 mg/kg/injection, schedule: Q01DX009 (ip), vehicle: Klucel (hydroxypropylcellulose) (HPC)",100 % of control
same,T/C,"endpoint: mean survival time, dose: 50.0 mg/kg/injection, schedule: Q01DX009 (ip), vehicle: Klucel (hydroxypropylcellulose) (HPC)",95 % of control
same,T/C,"endpoint: mean survival time, dose: 100.0 mg/kg/injection, schedule: Q01DX009 (ip), vehicle: Klucel (hydroxypropylcellulose) (HPC)",100 % of control
CC1C=CC(C(=O)Nc2ccc(Cl)c(Cl)c2)N1C (stereo not given),T/C,[4],92 % of control
N#CC(OC1OC(COC2OC(CO)C(O)C(O)C2O)C(O)C(O)C1O)c1ccccc1 (stereo not given),T/C,[5],94 % of control
same,T/C,[6],88 % of control and 104 % of control
same,T/C,[7],98 % of control and 102 % of control
same,T/C,[8],94 % of control and 96 % of control
same,T/C,[9],91 % of control and 102 % of control
same,T/C,"endpoint: mean survival time, dose: 400.0 mg/kg/injection, schedule: Q01DX009 (ip), vehicle: water",95 % of control and 97 % of control
same,T/C,"endpoint: mean survival time, dose: 800.0 mg/kg/injection, schedule: Q01DX009 (ip), vehicle: water",93 % of control and 100 % of control
[O-][N+](=C(c1ccccc1)c1ccccc1)c1ccccc1,T/C,"endpoint: mean survival time, dose: 75.0 mg/kg/injection, schedule: Q01DX009 (ip), vehicle: saline with Tween-80",96 % of control
same,T/C,"endpoint: mean survival time, dose: 150.0 mg/kg/injection, schedule: Q01DX009 (ip), vehicle: saline with Tween-80",94 % of control
same,T/C,"endpoint: mean survival time, dose: 300.0 mg/kg/injection, schedule: Q01DX009 (ip), vehicle: saline with Tween-80",94 % of control
CCCCCCCCCCCCCCCC(O)S(=O)(=O)O (stereo not given),T/C,"endpoint: mean survival time, dose: 50.0 mg/kg/injection, schedule: Q01DX009 (ip), vehicle: saline with Tween-80",93 % of control
same,T/C,[10],94 % of control
Cc1cc2ncn(C(=O)Nc3ccccc3)c2cc1C,T/C,[10],105 % of control
same,T/C,[11],94 % of control
same,T/C,[12],96 % of control
CCc1ccc(OS(=O)(=O)c2cccc([N+](=O)[O-])c2)cc1,T/C,[10],98 % of control
same,T/C,[13],94 % of control
same,T/C,[11],91 % of control
same,T/C,[4],105 % of control
same,T/C,[12],102 % of control
same,T/C,[14],100 % of control
CCC(=O)O.CCC(=O)O.CCC(=O)O.CCC(=O)O.O=P1(N(CCCl)CCCl)NCCCO1.O=P1(N(CCCl)CCCl)NCCCO1.[Rh].[Rh] (stereo not given),T/C,"endpoint: mean survival time, dose: 0.5 mg/kg/injection, schedule: Q01DX001 (ip), vehicle: water",92 % of control
same,T/C,"endpoint: mean survival time, dose: 1.0 mg/kg/injection, schedule: Q01DX001 (ip), vehicle: water",92 % of control
same,T/C,"endpoint: mean survival time, dose: 2.0 mg/kg/injection, schedule: Q01DX001 (ip), vehicle: water",102 % of control
same,T/C,"endpoint: mean survival time, dose: 4.0 mg/kg/injection, schedule: Q01DX001 (ip), vehicle: water",107 % of control
O=[N+]([O-])c1cc(Cl)cc2c1NP(=S)(c1ccccc1)N2 (stereo not given),T/C,"endpoint: mean survival time, dose: 25.0 mg/kg/injection, schedule: Q04DX002 (ip), vehicle: saline with Tween-80",91 % of control
same,T/C,"endpoint: mean survival time, dose: 50.0 mg/kg/injection, schedule: Q04DX002 (ip), vehicle: saline with Tween-80",102 % of control
same,T/C,[15],91 % of control
same,T/C,[16],98 % of control
COc1ccc(CCNc2ccc(OC)c(OC)c2)cc1OC,T/C,[5],100 % of control
same,T/C,[6],96 % of control
same,T/C,[7],100 % of control
same,T/C,[8],96 % of control
same,T/C,[9],91 % of control
CCOc1ccnc(OCC)n1,T/C,[13],105 % of control
same,T/C,[4],102 % of control
COC(=O)C(N)CS (stereo not given),T/C,[13],101 % of control
same,T/C,[4],101 % of control
same,T/C,[14],106 % of control
CNC(=O)C1CCC(CC2CCCCC2)CC1 (stereo not given),T/C,[1],93 % of control
same,T/C,[2],93 % of control
same,T/C,[3],102 % of control
CC1CN1P(=O)(N1CC1C)N1CC1C.CC1CN1P(=O)(N1CC1C)N1CC1C.CC1CN1P(=O)(N1CC1C)N1CC1C.CC1CN1P(=O)(N1CC1C)N1CC1C.CC1CN1P(=O)(N1CC1C)N1CC1C.CC1CN1P(=O)(N1CC1C)N1CC1C.[Fe+3].[O-][Cl+3]([O-])([O-])O (stereo not given),T/C,[15],98 % of control
same,T/C,[16],98 % of control
same,T/C,"endpoint: mean survival time, dose: 400.0 mg/kg/injection, schedule: Q04DX002 (ip), vehicle: saline with Tween-80",115 % of control
